Source: ChEMBL document CHEMBL1144615, “Neuroprotective effects of kobophenol A against the withdrawal of tropic support, nitrosative stress, and mitochondrial damage in SH-SY5Y neuroblastoma cells” (2007)
The source made the active and inactive calls. The calls are words filed in the database; no cut-off is given here.

Key:
[1] = test system: SH-SY5Y; test: Increase in cell viability of SH-SY5Y cells in serum starved conditions at 10 ug/mL after 48 hrs by MTT assay relative to control; assay type: functional, Homo sapiens
[2] = test system: SH-SY5Y; test: Increase in cell viability of SH-SY5Y cells in serum starved conditions at 20 ug/mL after 48 hrs by MTT assay relative to control; assay type: functional, Homo sapiens
[3] = test system: SH-SY5Y; test: Increase in cell viability of SH-SY5Y cells in serum starved conditions at 30 ug/mL after 48 hrs by MTT assay relative to control; assay type: functional, Homo sapiens
[4] = test system: SH-SY5Y; test: Inhibition of 1 mM sodium nitroprusside-induced cell death in SH-SY5Y cells assessed as increase in cell viability at 30 ug/mL after 24 hrs by MTT assay relative to control; assay type: functional, Homo sapiens
[5] = test system: SH-SY5Y; test: Inhibition of 3 mM sodium nitroprusside-induced cell death in SH-SY5Y cells assessed as increase in cell viability at 30 ug/mL after 24 hrs by MTT assay relative to control; assay type: functional, Homo sapiens
[6] = test system: SH-SY5Y; test: Inhibition of 5 mM sodium nitroprusside-induced cell death in SH-SY5Y cells assessed as increase in cell viability at 30 ug/mL after 24 hrs by MTT assay relative to control; assay type: functional, Homo sapiens
[7] = test system: SH-SY5Y; test: Inhibition of 2 mM paraquat-induced cell death in SH-SY5Y cells assessed as increase in cell viability at 10 ug/mL after 24 hrs by MTT assay relative to control; assay type: functional, Homo sapiens
[8] = test system: SH-SY5Y; test: Inhibition of 2 mM paraquat-induced cell death in SH-SY5Y cells assessed as increase in cell viability at 20 ug/mL after 24 hrs by MTT assay relative to control; assay type: functional, Homo sapiens
[9] = test system: SH-SY5Y; test: Reduction of sodium nitroprusside-induced cell death in SH-SY5Y cells assessed as subG1 DNA content relative to control; assay type: functional, cell-based; settings: Homo sapiens
[10] = test system: SH-SY5Y; test: Reduction of paraquat-induced cell death in SH-SY5Y cells assessed as subG1 DNA content relative to control; assay type: functional, cell-based; settings: Homo sapiens
[11] = target: T1, Caspase-3 (Homo sapiens) (UniProt P42574); test: Decrease in sodium nitroprusside-induced caspase-3 activity in SH-SY5Y cells; assay type: cell-based
T1 sequence (whole entry): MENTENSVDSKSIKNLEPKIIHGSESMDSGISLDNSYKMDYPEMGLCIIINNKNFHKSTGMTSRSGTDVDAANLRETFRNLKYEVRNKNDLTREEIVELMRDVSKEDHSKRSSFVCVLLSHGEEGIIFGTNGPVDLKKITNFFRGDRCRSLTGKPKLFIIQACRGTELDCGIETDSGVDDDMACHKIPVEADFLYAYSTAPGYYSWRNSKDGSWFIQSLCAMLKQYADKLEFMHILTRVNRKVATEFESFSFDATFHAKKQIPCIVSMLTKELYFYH

[12] = target: T2, Caspase-9 (Homo sapiens) (UniProt P55211); test: Decrease in sodium nitroprusside-induced caspase 9 activity in SH-SY5Y cells; assay type: cell-based
T2 sequence (whole entry): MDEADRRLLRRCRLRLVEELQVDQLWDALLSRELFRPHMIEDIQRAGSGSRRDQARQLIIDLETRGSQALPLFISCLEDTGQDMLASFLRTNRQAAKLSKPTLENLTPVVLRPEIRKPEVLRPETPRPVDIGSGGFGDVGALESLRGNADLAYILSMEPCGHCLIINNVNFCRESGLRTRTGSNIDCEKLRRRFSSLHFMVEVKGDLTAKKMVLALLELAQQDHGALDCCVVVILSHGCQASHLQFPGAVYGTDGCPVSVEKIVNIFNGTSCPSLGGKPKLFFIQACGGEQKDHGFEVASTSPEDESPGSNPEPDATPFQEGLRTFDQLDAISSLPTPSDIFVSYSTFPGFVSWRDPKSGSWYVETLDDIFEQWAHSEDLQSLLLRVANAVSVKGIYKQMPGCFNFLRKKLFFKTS

[13] = test system: SH-SY5Y; test: Reduction on sodium nitroprusside-induced ROS production in SH-SY5Y cells; assay type: functional, Homo sapiens; design: scale not given: the % may be the effect or the level left
[14] = test system: SH-SY5Y; test: Reduction on paraquat-induced ROS production in SH-SY5Y cells; assay type: functional, Homo sapiens; design: scale not given: the % may be the effect or the level left
[15] = test system: SH-SY5Y; test: Effect on sodium nitroprusside-induced intracellular calcium level in SH-SY5Y cells after 8 hrs relative to control; assay type: functional, Homo sapiens
[16] = test system: SH-SY5Y; test: Effect on sodium nitroprusside-induced intracellular calcium level in SH-SY5Y cells after 25 hrs relative to control; assay type: functional, Homo sapiens
[17] = test system: SH-SY5Y; test: Reduction of nitric oxide-induced intracellular calcium level in SH-SY5Y cells; assay type: functional, cell-based; settings: Homo sapiens
[18] = test system: SH-SY5Y; test: Effect on 2 mM paraquat-induced intracellular calcium level in SH-SY5Y cells after 8 hrs relative to control; assay type: functional, Homo sapiens
[19] = test system: SH-SY5Y; test: Effect on 2 mM paraquat-induced intracellular calcium level in SH-SY5Y cells after 24 hrs relative to contro; assay type: functional, Homo sapiens
[20] = test system: SH-SY5Y; test: Effect on 3 mM sodium nitroprusside-induced mitochondrial transmembrane potential level in SH-SY5Y cells after 8 hrs; assay type: functional, Homo sapiens
[21] = test system: SH-SY5Y; test: Effect on 3 mM sodium nitroprusside-induced mitochondrial transmembrane potential level in SH-SY5Y cells after 24 hrs; assay type: functional, Homo sapiens
[22] = test system: SH-SY5Y; test: Inhibition of 2 mM paraquat-induced cell death in SH-SY5Y cells assessed as increase in cell viability at 30 ug/mL after 24 hrs by MTT assay relative to control; assay type: functional, Homo sapiens
[23] = target: T1, Caspase-3 (Homo sapiens); test: Decrease in paraquat-induced caspase-3 activity in SH-SY5Y cells; assay type: cell-based
[24] = target: T2, Caspase-9 (Homo sapiens); test: Decrease in paraquat-induced caspase 9 activity in SH-SY5Y cells; assay type: cell-based
[25] = test system: SH-SY5Y; test: Reduction of sodium nitroprusside-induced nitric oxide production in SH-SY5Y cells; assay type: functional, cell-based; settings: Homo sapiens

`Oc1ccc([C@H]2Oc3cc(O)cc([C@@H]4[C@H](c5cc(O)cc(O)c5)[C@@H](c5ccc(O)cc5)O[C@H]4c4ccc(O)cc4)c3[C@@H]2c2cc(O)c3c(c2)[C@@H](c2cc(O)cc(O)c2)[C@H](c2ccc(O)cc2)O3)cc1` [KOBOPHENOL A] gave an Activity [1] of 105.7%, an Activity [2] of 91.4% and an Activity [3] of 78.7%. For the same compound, the Activity [4] was 108.6%, the Activity [5] was 109.8% and the Activity [6] was 88.1%. The Activity [7] was 66.3%, the Activity [8] was 85.6% and the Activity [9] was “Active”. The Activity [10] was “Active”, the Activity [11] was “Dose-dependent effect” and the Activity [12] was “Dose-dependent effect”. The Activity [13] was 103.4%, the Activity [14] was 103.6% and the Activity [15] was 96.1%. For the same compound, the Activity [16] was 96.1%, the Activity [17] was “Active” and the Activity [18] was 99.1%. For the same compound, the Activity [19] was 98.3%, the Activity [20] was 128.3% and the Activity [21] was 119.3%. For the same compound, the Activity [22] was 102.5%, the Activity [23] was “Active” and the Activity [24] was “Dose-dependent effect”. The Activity [25] was “inactive”.
